Test results reported in patent US8993717B2, “Gadd45beta targeting agents” (Imperial Innovations Limited, priority 2009, dated 2015).
Read-outs that look alike come from different tables or passages of the source. Square brackets hold non-standard residues; d marks the D form. Peptide text beside a SMILES is read from it. * marks the point of attachment. Fmoc = O=C(OCC1c2ccccc2-c2ccccc21)*; ClZ = O=C(OCc1ccccc1Cl)*; Cbz = O=C(OCc1ccccc1)*; Bz = O=C(c1ccccc1)*; NHPh = c1ccc(N*)cc1; βAla = NCCC(=O)O

Tests used:
[1] = system: KMS11 multiple myeloma cells; test: [3H]thymidine incorporation assay in KMS11; format: cell-based, human
Experimental: Cultures of multiple myeloma cells and treatments with Z-DTPs were carried out as described in Example 8 (see below). The effects of Z-DTPs on the survival/proliferation of multiple myeloma cells were evaluated by the use of [^3H]thymidine) incorporation assays, performed as also described in Example 8. The amount of cell proliferation measured with each of the Z-DTPs' concentrations used and with the untreated cultures (i.e. cultures incubated with medium alone), was expressed as counts per minute (c.p.m.)—which directly correlate with the extent of cell proliferation. All experiments were performed in triplicate.
In these latter assays, the effects of Z-DTPs, Ac-DTPs and Z-LTPs on the survival/proliferation of tumour cell lines was investigated by measuring DNA synthesis using standard tritiated thymidine ([^3H]thymidine; [^3H]-TdR) uptake assays. In the analyses shown, cells were incubated for 24, 72, 120 or 144 hrs at 37° C. in the presence or absence of control or bioactive tetrapeptides, as indicated, then subjected to an additional incubation for 18 hrs with [^3H]-TdR (0.037 MBq/well, equivalent to […]). Cells were subsequently harvested onto glass fibre filter mats using a 96-well plate automated cell harvester, after which scintillation fluid was added, and [^3H]thymidine incorporation measured by liquid scintillation spectroscopy on a beta counter. The results are expressed as the percentages of the counts per minute (c.p.m.) (directly correlating with the extent of cell proliferation) measured with tetrapeptide-treated cultures relative to the c.p.m. measured with the corresponding cultures incubated with medium alone (untreated cells). All experiments were performed in triplicate.

Gadd45β/MKK7 interaction = target: T1, Gadd45β/MKK7 interaction (Homo sapiens, UniProt O14733); test: ELISA competition assay of biotin-hGadd45β binding to coated GST-MKK7
T1 construct: The GST-fused full-length kinase was coated for 16 h at 4° C., at a concentration of 42 nM; made in house
T1 sequence (O14733 1-419): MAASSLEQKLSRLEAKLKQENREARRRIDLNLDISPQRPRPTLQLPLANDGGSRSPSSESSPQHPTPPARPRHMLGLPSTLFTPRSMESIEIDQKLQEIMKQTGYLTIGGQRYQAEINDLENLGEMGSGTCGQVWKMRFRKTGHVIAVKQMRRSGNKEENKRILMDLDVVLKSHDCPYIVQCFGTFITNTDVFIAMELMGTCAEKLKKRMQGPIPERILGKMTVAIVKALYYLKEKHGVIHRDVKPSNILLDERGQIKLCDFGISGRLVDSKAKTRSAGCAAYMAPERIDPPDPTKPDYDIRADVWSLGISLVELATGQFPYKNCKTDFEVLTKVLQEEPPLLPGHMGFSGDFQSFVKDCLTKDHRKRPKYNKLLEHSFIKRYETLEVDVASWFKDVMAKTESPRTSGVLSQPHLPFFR
Experimental: To evaluate the inhibitory properties of peptides, ELISA-based assays were performed. In these assays, a fusion protein of glutathione S-transferase (GST) and mitogen-activated protein kinase kinase 7 (MKK7) was coated onto wells of a 96-well plate, while biotinylated-hGadd45β was used in solution. hGadd45β was biotinylated using an EZ Link NHS-LC-biotin kit (Pierce, Rockford, Ill.), according to Tornatore et al. (Tornatore L., et al. (2008). J Mol Biol; 378:97-111).
Firstly, the association between Gadd45β and MKK7 was investigated by ELISA assays as also reported in Tornatore et al. (Tornatore L., et al. (2008). J Mol Biol; 378:97-111). The GST-fused full-length kinase was coated for 16 h at 4° C., at a concentration of 42 nM in buffer A (25 mM Tris pH 7.5, 150 mM NaCl, 1 mM DTT and 1 mM EDTA) into wells of a 96-well microliter plate. Some wells were filled with buffer alone and were used as blanks. After incubation for 16 h at 4° C., the solutions were removed and the wells were filled with 350 μL of a 1% (w/v) solution of NFDM (Non Fat Dry Milk) in PBS (phosphate buffered saline). The plate was incubated for 1 h at 37° C. in the dark. After washing with buffer T-PBS (PBS with 0.004% (v/v) Tween detergent), the wells were filled with 100 μL of biotinylated-hGadd45β at concentrations ranging from 8.4 nM to 168 nM. Each data point was performed in triplicate. Following incubation for 1 hr in the dark at 37° C. the solutions were removed and the wells were again washed with T-PBS. Then 100 μL of a 1:10,000 dilution of horseradish peroxidase-conjugated streptavidin dissolved in buffer was added to each well and the plate incubated for 1 hr at 37° C. in the dark. After removal of the enzyme solution and washing, 100 μL of the chromogenic substrate o-phenylendiamine (0.4 mg/mL in 50 mM sodium phosphate-citrate buffer, containing 0.4 mg/mL of urea in hydrogen peroxide) was added and the colour was allowed to develop in the dark for 5 min. The reaction was stopped by adding 50 μL of 2.5 M H2SO4. The absorbance at 490 nm was measured in all wells and the values were averaged after subtracting the corresponding blanks. Bound protein was then detected as described above. The molar concentration of biotinylated-hGadd45β at which the half-maximal ELISA signal is detected corresponds to the dissociation constant (KD) (Friguet B, Chaffotte A F, Djavadi-Ohaniance L, Goldberg M E. J Immunol Methods. 1985 Mar. 18; 77 (2):305-19). Binding competition assays were performed by coating GST-MKK7 at 42 nM as described, a concentration of biotinylated-hGadd45β of 21 nM (pre-saturation conditions 1:0.5 mol/mol ratio) and, in a first test, using competitors at 21 nM. The binding of biotinylated hGadd45β to GST-MKK7 was analyzed in the presence of increasing amounts of competitor peptide (concentrations ranging from 0.01 nM to 100 nM), and the values obtained with the competitor were expressed as the percentage of the binding detected in the absence of competitor. […] According to the convention adopted in the table “L-Xaa” and “D-Xaa” refer to the L and D forms of amino acid Xaa.
A simplified combinatorial peptide library (Marasco et al. 2008, Curr. Protein Pept. Sci. 9:447-67) was screened for antagonists of the Gadd45β/MKK7 interaction. This library contained a total of 12^4=20,736 different tetrapeptides formed by combinations of the following amino acid residues Gln (Q), Ser (S), Arg (R), Ala (A), Tyr (Y), Pro (P), Met (M), Cys (C), Phe (F), Leu (L), His (H), Asp (D), and was iteratively deconvoluted in four steps by ELISA competition assays using at each step coated MKK7 (42 nM), soluble-biotin-hGadd45β (21 nM) and each of the 12 sub-libraries (42 nM).

[2] = Day 1, read-out: IC50 [H^3] thymidine incorporation assay in KMS11
[3] = Day 3, read-out: IC50 [H^3] thymidine incorporation assay in KMS11
[4] = Day 6, read-out: IC50 [H^3] thymidine incorporation assay in KMS11
[5] = Table I, initial Elisa screening, coated MKK7 42 nM, biotin-hGadd45β 21 nM, competitor 21 nM, sub-libraries 42 nM
[6] = Table II, modified pure peptides

Molecule | IC50 [1, 2] | IC50 [1, 3] | IC50 [1, 4] | % Inhibition of Gadd45β-MKK7 binding (Gadd45β/MKK7 interaction; Table III, modified peptides) | other results
CC(C)C[C@@H](NC(=O)[C@@H](Cc1ccc(O)cc1)NC(=O)OCc1ccccc1)C(=O)N[C@H](Cc1ccccc1)C(N)=O [Z-Tyr-Leu-Phe-NH2] (Cbz-[dY]-[dL]-[dF]-NH2) | > 10 µM | > 10 µM | > 10 µM | – | –
NC(=O)C[C@@H](NC(=O)[C@@H](Cc1ccc(O)cc1)NC(=O)OCc1ccccc1)C(=O)N[C@H](Cc1ccccc1)C(N)=O [Z-Tyr-Asn-Phe-NH2] (Cbz-[dY]-[dN]-[dF]-NH2) | > 10 µM | > 10 µM | > 10 µM | – | –
N=C(N)NCCC[C@@H](NC(=O)[C@@H](CC(N)=O)NC(=O)[C@@H](Cc1ccc(O)cc1)NC(=O)OCc1ccccc1)C(=O)N[C@H](Cc1ccccc1)C(N)=O [Z-Tyr-Asn-Arg-Phe-NH2] (Cbz-[dY][dN][dR][dF]-NH2) | > 10 µM | > 10 µM | > 10 µM | – | –
NC(=O)CC[C@@H](NC(=O)[C@@H](Cc1ccc(O)cc1)NC(=O)OCc1ccccc1)C(=O)N[C@H](Cc1ccccc1)C(N)=O [Z-Tyr-Gln-Phe-NH2] (Cbz-[dY]-[dQ]-[dF]-NH2) | > 10 µM | > 10 µM | > 10 µM | – | –
CSCC[C@@H](NC(=O)[C@@H](Cc1ccc(O)cc1)NC(=O)OCc1ccccc1)C(=O)N[C@H](CCCNC(=N)N)C(=O)N[C@H](Cc1ccccc1)C(N)=O [Z-Tyr-Met-Arg-Phe-NH2] (Cbz-[dY][dM][dR][dF]-NH2) | > 10 µM | > 10 µM | > 10 µM | – | –
N=C(N)NCCC[C@@H](NC(=O)[C@@H](CCC(=O)O)NC(=O)c1ccccc1)C(=O)Nc1ccccc1 [Compound 10, X1-Glu-Arg-Y1] (Bz-[dE]-[dR]-NHPh) | – | – | – | – | IC50 [1]: > 10 µM
Z-YDHQ-NH2 (Cbz-YDHQ-NH2) | – | – | – | 13% | –
Fmoc(βAla)2-YDHC-NH2 ({Fmoc-βAla-βAla}-YDHC-NH2; SMILES NC(=O)[C@H](CS)NC(=O)[C@H](Cc1c[nH]cn1)NC(=O)[C@H](CC(=O)O)NC(=O)[C@H](Cc1ccc(O)cc1)NC(=O)CCNC(=O)CCNC(=O)OCC1c2ccccc2-c2ccccc21) | – | – | – | – | % Inhibition of Gadd45β-MKK7 binding (Gadd45β/MKK7 interaction; [5]): 44%
Fmoc-YDFQ-NH2 (SMILES NC(=O)CC[C@H](NC(=O)[C@H](Cc1ccccc1)NC(=O)[C@H](CC(=O)O)NC(=O)[C@H](Cc1ccc(O)cc1)NC(=O)OCC1c2ccccc2-c2ccccc21)C(N)=O) | – | – | – | 19% | –
Benzoic acid-YERF-NH2 | – | – | – | 24% | –
Ac-YEAF-NH2 | – | – | – | 13% | –
Ac-YERF-NH2 | – | – | – | – | % Inhibition of Gadd45β-MKK7 binding (Gadd45β/MKK7 interaction; [6]): 93%; inhibition of Gadd45β/MKK7 complex formation in ELISA competition assays (Gadd45β/MKK7 interaction; result in words): IC50s similar to those of DTPs
Fmoc(βAla)2-YDHY-NH2 ({Fmoc-βAla-βAla}-YDHY-NH2; SMILES NC(=O)[C@H](Cc1ccc(O)cc1)NC(=O)[C@H](Cc1c[nH]cn1)NC(=O)[C@H](CC(=O)O)NC(=O)[C@H](Cc1ccc(O)cc1)NC(=O)CCNC(=O)CCNC(=O)OCC1c2ccccc2-c2ccccc21) | – | – | – | – | % Inhibition of Gadd45β-MKK7 binding (Gadd45β/MKK7 interaction; [5]): 63%
2CI-Z-YDHQ-NH2 (ClZ-YDHQ-NH2) | – | – | – | 40% | –
Ac-WDHF-NH2 | – | – | – | – | % Inhibition of Gadd45β-MKK7 binding (Gadd45β/MKK7 interaction; [6]): 28%
